Data taken from ChEMBL document CHEMBL1143492, “Design, synthesis, and bioavailability evaluation of coumarin-based prodrug of meptazinol” (Bioorg Med Chem Lett, 2005).

Assay: Area under curve was determined after intravenous administration (29.7 umol/kg) in rat
Format: ADME
Details: in vivo

## CCC1(c2cccc(O)c2)CCCCN(C)C1 (stereo unspecified) [MEPTAZINOL]
  AUC: 1990 ng·h/mL
